From EP4509511A1, “SUBSTITUTED SPIRO-ISOXAZOLINYL LACTAMS, SALTS THEREOF AND THEIR USE AS HERBICIDALLY ACTIVE SUBSTANCES” (Bayer Aktiengesellschaft, priority 2023, dated 2025)

Tests used:
TRZAS = assay: Post-emergence effects on crop plants; type: in vivo, Triticum aestivum; conditions: crop plant
From the text: (§1) Seeds of mono- and dicotyledonous weed plants and crop plants were sown, in plastic or organic planting pots, in sandy loam, covered with soil and grown in a greenhouse under controlled growth conditions. 2 to 3 weeks after sowing, the test plants were sprayed in the single-leaf stage. The compounds according to the invention, formulated in form of wettable powders (WP) or as emulsifiable concentrates (EC), were sprayed onto the green plant parts as aqueous suspension or emulsion, with the addition of 0.5% of an additive, at an application rate of 600 1 of water/ha (converted). The test plants were placed in the greenhouse for ca. 3 weeks under optimum growth conditions, and then the effect of the preparations was assessed visually in comparison with untreated controls (herbicidal effect in percent (%): 100% effect = plants have died off, 0% effect = as control plants). Tables F1 to F5 below show the effects of selected compounds of the general formula (I) according to table 1 on various crop plants and an application rate corresponding to 320 g/ha or below obtained by the experimental procedure mentioned above. Table […]: post-emergence activity at 5g/ha against ZEAMX in %

SETVI = assay: Herbicidal post-emergence action - Part II; type: in vivo, Setaria viridis
From the text: (§2) Seeds of mono- and dicotyledonous weed plants and crop plants were sown, in plastic or organic planting pots, in sandy loam, covered with soil and grown in a greenhouse under controlled growth conditions. 2 to 3 weeks after sowing, the test plants were sprayed in the single-leaf stage. The compounds according to the invention, formulated in form of wettable powders (WP) or as emulsifiable concentrates (EC), were sprayed onto the green plant parts as aqueous suspension or emulsion, with the addition of 0.5% of an additive, at an application rate of 600 1 of water/ha (converted). The test plants were placed in the greenhouse for ca. 3 weeks under optimum growth conditions, and then the effect of the preparations was assessed visually in comparison with untreated controls (herbicidal effect in percent (%): 100% effect = plants have died off, 0% effect = as control plants). Tables E1 to E10 below show the effects of selected compounds of the general formula (I) according to table 1 on various harmful plants and an application rate corresponding to 320 g/ha or below obtained by the experimental procedure mentioned above. Table E1a: post-emergence activity at 5g/ha against ABUTH in %

PHBPU = assay: Herbicidal post-emergence action - Part II; type: in vivo, Pharbitis purpurea
From the text: as §2

MATIN [1] = assay: Herbicidal post-emergence action - Part II; type: in vivo, Matricaria inodora
From the text: as §2

POLCO = assay: Herbicidal post-emergence action - Part II; type: in vivo, Polygonum convolvulus; conditions: 20 g/ha; Table E6
From the text: as §2

AMARE [2] = assay: Herbicidal post-emergence action - Part II; type: in vivo, Amaranthus retroflexus
From the text: as §2

ABUTH [3] = assay: Herbicidal post-emergence action - Part II; type: in vivo, Abutilon theophrasti
From the text: as §2

ZEAMX = assay: Post-emergence effects on crop plants; type: in vivo, Zea mays; conditions: crop plant
From the text: as §1

VIOTR = assay: Herbicidal post-emergence action - Part II; type: in vivo, Viola tricolor
From the text: as §2

VERPE [4] = assay: Herbicidal post-emergence action - Part II; type: in vivo, Veronica persica
From the text: as §2

STEME [5] = assay: Herbicidal post-emergence action - Part I; type: in vivo, Stellaria media; conditions: one-leaf stage, rated visually after about 3 weeks vs untreated controls
Protocol: (§3) Seeds of mono- and dicotyledonous weed plants were placed in plastic pots in sandy loam soil (doubly sown with in each case one species of mono- or dicotyledonous weed plants per pot), covered with soil and cultivated in a greenhouse under controlled growth conditions. 2 to 3 weeks after sowing, the test plants were treated at the one-leaf stage. The compounds of the invention, formulated in the form of wettable powders (WP) or as emulsion concentrates (EC), were applied onto the green parts of the plants as aqueous suspension or emulsion with addition of 0.5% additive at a water application rate of 600 liters per hectare (converted). After the test plants had been kept in the greenhouse under optimum growth conditions for about 3 weeks, the activity of the preparations was rated visually in comparison to untreated controls. For example, 100% activity = the plants have died, 0% activity = like control plants. Tables B1 to B12, below, show the effects of selected compounds of the general formula (I) according to table 1 on various harmful plants and an application rate corresponding to 1280 g/ha or below obtained by the experimental procedure mentioned above. Table B1a: post-emergence activity at 1280g/ha against ABUTH in %

AMARE [6] = assay: Herbicidal pre-emergence action - Part I; type: in vivo, Amaranthus retroflexus; conditions: 1280 g/ha, visual grading after ca. 3 weeks vs untreated controls
From the text: (§4) Seeds of mono- and dicotyledonous weed plants were sown in plastic pots (double sowings with one species of mono- and one species of dicotyledonous weed plants per pot), in sandy loam, and covered with soil. The compounds according to the invention, formulated in the form of wettable powders (WP) or as emulsifiable concentrates (EC), were applied to the surface of the covering soil as aqueous suspension or emulsion, with the addition of 0.5% of an additive, at an application rate of 600 1 of water per hectare (converted). Following treatment, the pots were placed in a greenhouse and kept under optimum growth conditions for the test plants. The visual grading of the damage to the test plants was carried out after ca. 3 weeks in comparison to untreated controls (herbicidaleffectinpercent(%):100%effect=plantshavediedoff,0%effect=ascontrolplants). [formula]
(§5) Tables A1 to A12, below, show the effects of selected compounds of the general formula (I) according to table 1 on various harmful plants and an application rate corresponding to 1280 g/ha or below obtained by the experimental procedure mentioned above. Table A1: pre-emergence activity at 1280g/ha against ABUTH in %

AMARE [7] = assay: Herbicidal post-emergence action - Part I; type: in vivo, Amaranthus retroflexus; conditions: one-leaf stage, rated visually after about 3 weeks vs untreated controls
Protocol: as §3

ECHCG = assay: Herbicidal pre-emergence action - Part I; type: in vivo, Echinochloa crus-galli; conditions: 1280 g/ha, visual grading after ca. 3 weeks vs untreated controls
From the text: as §4, §5

KCHSC = assay: Herbicidal post-emergence action - Part I; type: in vivo, Kochia scoparia; conditions: 1280 g/ha, one-leaf stage, rated visually after about 3 weeks vs untreated controls
Protocol: as §3

MATIN [8] = assay: Herbicidal post-emergence action - Part I; type: in vivo, Matricaria inodora; conditions: one-leaf stage, rated visually after about 3 weeks vs untreated controls
Protocol: as §3

STEME [9] = assay: Herbicidal pre-emergence action - Part I; type: in vivo, Stellaria media; conditions: 1280 g/ha, visual grading after ca. 3 weeks vs untreated controls
From the text: as §4, §5

VERPE [10] = assay: Herbicidal post-emergence action - Part I; type: in vivo, Veronica persica; conditions: 1280 g/ha, one-leaf stage, rated visually after about 3 weeks vs untreated controls
Protocol: as §3

ABUTH [11] = assay: Herbicidal post-emergence action - Part I; type: in vivo, Abutilon theophrasti; conditions: 320 g/ha, one-leaf stage, rated visually after about 3 weeks vs untreated controls
Protocol: as §3

GLXMA = assay: Post-emergence effects on crop plants; type: in vivo, Glycine max; conditions: crop plant
From the text: as §1

Structure (SMILES)	post-emergence activity against TRZAS (TRZAS; 5 g/ha, Table F2a) [%]	post-emergence activity against TRZAS (TRZAS; 20 g/ha, Table F2b) [%]	post-emergence activity against SETVI (SETVI; 20 g/ha, Table E7b) [%]	post-emergence activity against PHBPU (PHBPU; 5 g/ha, Table E5a) [%]	post-emergence activity against PHBPU (PHBPU; 20 g/ha, Table E5b) [%]	post-emergence activity against MATIN (MATIN [1]; 20 g/ha, Table E4b) [%]	post-emergence activity against POLCO (POLCO) [%]	post-emergence activity against AMARE (AMARE [2]; 5 g/ha, Table E2a) [%]	post-emergence activity against AMARE (AMARE [2]; 20 g/ha, Table E2b) [%]	post-emergence activity against ABUTH (ABUTH [3]; 5 g/ha, Table E1a) [%]	post-emergence activity against ABUTH (ABUTH [3]; 20 g/ha, Table E1b) [%]	post-emergence activity against ZEAMX (ZEAMX; 5 g/ha, Table F1a) [%]	post-emergence activity against VIOTR (VIOTR; 5 g/ha, Table E9a) [%]	post-emergence activity against VIOTR (VIOTR; 20 g/ha, Table E9b) [%]	post-emergence activity against VERPE (VERPE [4]; 5 g/ha, Table E8a) [%]	post-emergence activity against VERPE (VERPE [4]; 20 g/ha, Table E8b) [%]	also measured
Cn1c(C(F)(F)F)cc(=O)n(-c2cc(C3=NOC4(CCCN(Cc5ccccc5F)C4=O)C3)c(Cl)cc2F)c1=O (racemic) [Compound I-7]	10	20	100	100	100	80	100	100	100	100	100	20	100	100	100	100	post-emergence activity against MATIN (MATIN [1]; 5 g/ha, Table E4a): 80%
COC(=O)CN1CCCC2(CC(c3cc(-n4c(=O)cc(C(F)(F)F)n(C)c4=O)c(F)cc3Cl)=NO2)C1=O (racemic) [Compound I-57]	20	20		100	100	100	100	100	100		100	20		100		100	post-emergence activity against ZEAMX (ZEAMX; 20 g/ha, Table F1b): 20%
COc1ncccc1C1=NOC2(CCN(Cc3cccc(F)c3F)C2=O)C1 (racemic) [Compound I-42]																	post-emergence activity at 320g/ha against STEME in % (STEME [5]; 320 g/ha): 100%; post-emergence activity at 1280g/ha against STEME in % (STEME [5]; 1280 g/ha): 100%; pre-emergence activity at 1280g/ha against AMARE in % (AMARE [6]): 90%; post-emergence activity at 320g/ha against AMARE in % (AMARE [7]; 320 g/ha): 90%; post-emergence activity at 1280g/ha against AMARE in % (AMARE [7]; 1280 g/ha): 90%; pre-emergence activity at 1280g/ha against ECHCG in % (ECHCG): 90%; post-emergence activity at 1280g/ha against KCHSC in % (KCHSC): 90%; post-emergence activity at 320g/ha against MATIN in % (MATIN [8]; 320 g/ha): 100%; post-emergence activity at 1280g/ha against MATIN in % (MATIN [8]; 1280 g/ha): 100%; pre-emergence activity at 1280g/ha against STEME in % (STEME [9]): 90%; post-emergence activity at 1280g/ha against VERPE in % (VERPE [10]): 90%; post-emergence activity at 320g/ha against ABUTH in % (ABUTH [11]): 90%
Cn1c(C(F)(F)F)cc(=O)n(-c2cc(C3=NOC4(CCN(Cc5c(F)cccc5F)C4=O)C3)c(Cl)cc2F)c1=O (racemic) [Compound I-29]	20	20	80		100	100	100	100	100	100	100	20	100	100	100	100	post-emergence activity against SETVI (SETVI; 5 g/ha, Table E7a): 80%; post-emergence activity against GLXMA (GLXMA; 5 g/ha, Table F4a): 10%; post-emergence activity against GLXMA (GLXMA; 20 g/ha, Table F4b): 20%
CN1CCCC2(CC(c3cc(-n4c(=O)cc(C(F)(F)F)n(C)c4=O)c(F)cc3Cl)=NO2)C1=O (racemic) [Compound I-56]	20	20	90	90	100	100	100	100	100	100	100		100	100	80	100	
